{
  "source": "patent US9593084B2",
  "about": "(Parion Sciences, Inc., priority 2012, dated 2017)",
  "key": {"[1]": {"system": "human bronchial epithelial (HBE) cells", "test": "Airway surface liquid drug clearance and metabolism by human airway epithelium", "type": "in vitro ADME", "protocol": "The disappearance of 33 from the apical surface and airway epithelial metabolism were assessed in human bronchial epithelial (HBE) cells (Table 3). In these experiments 25 μL of a 25 μM solution of ENaC blocker was added to the apical surface of HBE cells grown at an air/liquid interface, and the drug and metabolite concentration in the apical and basolateral compartment was measured over 2 h by UPLC.\nTherefore, the compounds of formula (I) have a longer half-life on mucosal surfaces compared to these know compounds as evidenced by the data shown in Table G. The disappearance of Compound 33 from the apical surface and airway epithelial metabolism were assessed in HBE and compared to Comparative Example 1 (Table H). In these experiments 25 μL of a 25 μM solution of ENaC blocker was added to the apical surface of HBE cells grown at an air/liquid interface, and the drug concentration in the apical and basolateral compartment was measured over 2 h by UPLC."}, "[2]": {"biological_target": "T1, epithelial sodium channel (Canis lupus familiaris, UniProt A0A8I3MKE6+A0A8I3Q679+Q95165)", "T1 construct": "endogenous in cells; host or cells: primary canine bronchial epithelial cells cultured at air-liquid interface", "T1 sequence (A0A8I3Q679 1-649)": "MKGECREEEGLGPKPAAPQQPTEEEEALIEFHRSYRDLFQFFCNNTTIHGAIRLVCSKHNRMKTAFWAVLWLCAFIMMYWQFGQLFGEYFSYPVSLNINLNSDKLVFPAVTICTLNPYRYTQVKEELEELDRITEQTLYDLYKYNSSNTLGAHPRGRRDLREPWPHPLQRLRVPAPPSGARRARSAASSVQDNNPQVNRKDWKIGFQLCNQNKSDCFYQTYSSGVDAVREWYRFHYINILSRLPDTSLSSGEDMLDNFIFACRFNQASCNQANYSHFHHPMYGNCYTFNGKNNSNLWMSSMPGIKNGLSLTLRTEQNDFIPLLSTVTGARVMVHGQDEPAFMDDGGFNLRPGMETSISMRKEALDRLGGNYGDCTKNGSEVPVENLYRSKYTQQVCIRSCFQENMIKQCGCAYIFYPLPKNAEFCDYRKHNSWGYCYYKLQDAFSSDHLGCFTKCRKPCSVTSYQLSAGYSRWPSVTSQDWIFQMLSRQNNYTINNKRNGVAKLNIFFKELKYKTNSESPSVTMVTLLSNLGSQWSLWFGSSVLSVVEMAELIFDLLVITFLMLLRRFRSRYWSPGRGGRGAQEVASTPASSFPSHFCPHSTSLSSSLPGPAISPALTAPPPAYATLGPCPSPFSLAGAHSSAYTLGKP", "T1 sequence (Q95165 1-641)": "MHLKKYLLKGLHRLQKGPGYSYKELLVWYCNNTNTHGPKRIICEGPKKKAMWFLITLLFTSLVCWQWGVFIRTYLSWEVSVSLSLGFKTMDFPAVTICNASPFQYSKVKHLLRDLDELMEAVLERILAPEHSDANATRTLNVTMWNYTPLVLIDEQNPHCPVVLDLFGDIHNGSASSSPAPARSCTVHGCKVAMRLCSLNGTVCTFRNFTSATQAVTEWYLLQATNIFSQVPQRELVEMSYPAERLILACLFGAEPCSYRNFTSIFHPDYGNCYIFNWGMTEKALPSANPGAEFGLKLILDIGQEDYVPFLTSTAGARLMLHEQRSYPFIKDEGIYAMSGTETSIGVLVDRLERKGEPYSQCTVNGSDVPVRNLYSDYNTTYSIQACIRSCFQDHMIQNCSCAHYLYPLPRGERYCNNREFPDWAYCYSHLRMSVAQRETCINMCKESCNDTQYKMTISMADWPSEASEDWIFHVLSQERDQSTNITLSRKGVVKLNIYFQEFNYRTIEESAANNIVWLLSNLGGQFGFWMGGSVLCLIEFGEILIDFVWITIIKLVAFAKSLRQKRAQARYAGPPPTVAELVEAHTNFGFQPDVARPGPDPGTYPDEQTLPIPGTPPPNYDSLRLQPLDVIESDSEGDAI", "T1 sequence (A0A8I3MKE6 1-646)": "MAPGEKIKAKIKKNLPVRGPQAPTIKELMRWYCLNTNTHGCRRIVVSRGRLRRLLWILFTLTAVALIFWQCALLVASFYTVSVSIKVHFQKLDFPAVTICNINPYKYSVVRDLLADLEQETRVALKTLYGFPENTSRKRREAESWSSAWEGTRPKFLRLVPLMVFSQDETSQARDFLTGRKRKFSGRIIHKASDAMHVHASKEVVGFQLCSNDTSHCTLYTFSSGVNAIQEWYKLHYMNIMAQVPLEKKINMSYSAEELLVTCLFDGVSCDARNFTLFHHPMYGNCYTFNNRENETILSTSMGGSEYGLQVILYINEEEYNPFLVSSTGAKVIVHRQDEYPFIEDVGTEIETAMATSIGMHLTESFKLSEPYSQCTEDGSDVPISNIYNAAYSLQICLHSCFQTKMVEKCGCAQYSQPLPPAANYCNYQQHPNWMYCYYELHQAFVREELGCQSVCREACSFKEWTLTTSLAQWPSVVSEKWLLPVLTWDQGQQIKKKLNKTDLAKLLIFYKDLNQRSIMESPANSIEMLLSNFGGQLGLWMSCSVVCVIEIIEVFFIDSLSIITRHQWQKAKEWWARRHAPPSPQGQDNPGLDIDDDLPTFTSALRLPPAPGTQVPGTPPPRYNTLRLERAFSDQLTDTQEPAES", "test": "Inhibition of short-circuit current (ISC) in airway epithelial monolayers in Ussing chambers", "type": "cell-based, canine", "details": "canine bronchial epithelial cells, short-circuit current; read-out: Potency of Sodium Channel Blockade IC50", "protocol": "One assay used to assess mechanism of action and/or potency of the compounds of the present invention involves the determination of lumenal drug inhibition of airway epithelial sodium currents measured under short circuit current (ISC) using airway epithelial monolayers mounted in Using chambers. Cells obtained from freshly excised human, dog, sheep or rodent airways are seeded onto porous 0.4 micron Snapwelff Inserts (CoStar), cultured at air-liquid interface (ALI) conditions in hormonally defined media, and assayed for sodium transport activity (ISC) while bathed in Krebs Bicarbonate Ringer (KBR) in Using chambers. All test drug additions are to the lumenal bath with half-log dose addition protocols (from 1×10^−11 M to 3×10^−5 M), and the cumulative change in ISC (inhibition) recorded. All drugs are prepared in dimethyl sulfoxide as stock solutions at a concentration of 1×10^−2 M and stored at −20° C. […] After the maximal concentration ([…]) is administered, the lumenal bath is exchanged three times with fresh drug-free KBR solution, and the resultant ISC measured after each wash for approximately 5 minutes in duration. Reversibility is defined as the percent return to the baseline value for sodium current after the third wash. All data from the voltage clamps are collected via a computer interface and analyzed off-line.\nDose-effect relationships for all compounds are considered and analyzed by the Prism 3.0 program."}, "[3]": {"details": "HBE cells at air/liquid interface, 25 μL of 25 μM apical, mean ± SD"}},
  "data": [
    {"smiles": "N=C(NCCCCc1ccc(C[C@H](N)C(=O)Nc2ccc(CCCN(C[C@H](O)[C@@H](O)[C@H](O)[C@H](O)CO)C[C@H](O)[C@@H](O)[C@H](O)[C@H](O)CO)cc2)c2ccccc12)NC(=O)c1nc(Cl)c(N)nc1N", "note": "[Compound 33, 3,5-diamino-N—(N-(4-(4-((S)-2-amino-3-(4-(3-(bis((2S,3R,4R,5R)-2,3,4,5,6-pentahydroxyhexyl)amino)propyl)phenylamino)-3-oxopropyl)naphthalen-1-yl)butyl)carbamimidoyl)-6-chloropyrazine-2-carboxamide]", "values": [
      {"measurement": "% of Apical Mass as Metabolites (2 h)", "setting": "[1]; [3]", "result": 4, "unit": "%"},
      {"measurement": "% on Basolateral Side as Metabolites (2 h)", "setting": "[1]; [3]", "result": 32, "unit": "%"},
      {"measurement": "fate on the apical side after 2 h incubation", "setting": "[1]; HBE cells, apical surface, 37° C.", "result": "mostly unmetabolized on the apical side"},
      {"measurement": "IC50", "setting": "[2]", "result": 21.8, "unit": "nM"}
    ]}
  ]
}
